Data taken from ChEMBL document CHEMBL4024724, “Synthesis of new 3-(2-mercapto-4-oxo-4H-quinazolin-3-yl)-benzenesulfonamides with strong inhibition properties against the tumor associated carbonic anhydrases IX and XII” (Bioorg Med Chem, 2017).

What follows are molecules tested against Carbonic anhydrase 9 (Homo sapiens, UniProt Q16790) (assay: Inhibition of recombinant human carbonic anhydrase 9 incubated for 15 mins prior to testing by stopped flow CO2 hydration assay).

| Ki [nM] | SMILES |
| --- | --- |
| 34.5 | Cc1cc2nc(S)n(-c3cccc(S(N)(=O)=O)c3)c(=O)c2cc1C |
| 4 | NS(=O)(=O)c1cccc(-n2c(S)nc3c(Br)cccc3c2=O)c1 |
| 58.9 | Cc1ccc2nc(S)n(-c3cccc(S(N)(=O)=O)c3)c(=O)c2c1 |
| 1.5 | NS(=O)(=O)c1cccc(-n2c(S)nc3ccc(I)cc3c2=O)c1 |
| 20.1 | COc1cc2c(=O)n(-c3cccc(S(N)(=O)=O)c3)c(S)nc2c(OC)c1OC |
| 45.1 | NS(=O)(=O)c1cccc(-n2c(S)nc3ccc(Cl)cc3c2=O)c1 |
| 25.2 | Cc1cccc2c(=O)n(-c3cccc(S(N)(=O)=O)c3)c(S)nc12 |
| 76.1 | NS(=O)(=O)c1cccc(-n2c(S)nc3ccccc3c2=O)c1 |
| 25 | COc1ccc2c(=O)n(-c3cccc(S(N)(=O)=O)c3)c(S)nc2c1 |
| 9.5 | NS(=O)(=O)c1cccc(-n2c(S)nc3c(Cl)cccc3c2=O)c1 |
| 19.8 | COc1cc2nc(S)n(-c3cccc(S(N)(=O)=O)c3)c(=O)c2cc1OC |
| 2.7 | NS(=O)(=O)c1cccc(-n2c(S)nc3cc(F)ccc3c2=O)c1 |
| 13 | COc1ccc2nc(S)n(-c3cccc(S(N)(=O)=O)c3)c(=O)c2c1 |
| 15.4 | NS(=O)(=O)c1cccc(-n2c(S)nc3cc(Cl)ccc3c2=O)c1 |
| 15.6 | COc1cccc2c(=O)n(-c3cccc(S(N)(=O)=O)c3)c(S)nc12 |
| 4.4 | NS(=O)(=O)c1cccc(-n2c(S)nc3ccc(F)cc3c2=O)c1 |
| 16.8 | NS(=O)(=O)c1cccc(-n2c(S)nc3cc(Br)ccc3c2=O)c1 |
